Assays:
[1] = test system: HaCaT cells; assay: antioxidant effect against H2O2 oxidative toxicity (Experimental Example 2); type: cell-based, human; conditions: for Number of fluorescent cells (Cell number): untreated 15, H2O2 only 255
[2] = test system: H2O2-induced reactive oxygen species generation; assay: DCF-DA staining, H2O2-induced reactive oxygen species generation (Experimental Example 3); type: cell-based; conditions: for Number of fluorescent cells (Cell number): DCF-DA, untreated 15, H2O2 only 255
Method: To investigate the inhibitory effect of the compound prepared in Embodiment 1 on H2O2-induced reactive oxygen species generation, DCF-DA staining was performed, and the results are shown in Table 3, FIG. 4, and FIG. 5 below. In the experiment, […] were seeded at a density of 2×10^5 cells per dish in a 35 pi dish and incubated for 24 hours. Subsequently, the cells were treated with the compound prepared in Embodiment 1 and further incubated for 24 hours. After 10 minutes of loading with 5 mM DCF-DA, the cells were examined under a fluorescence microscope, and the number of DCF-DA fluorescent cells was counted using Image J.

[3] = test system: human keratinocytes (HaCaT cells); assay: WST-1 assay, cytotoxicity / skin irritation (Experimental Example 1); type: cell-based; conditions: for Cell Viability: 24 hours, HaCaT cells, untreated = 100%
Method: To confirm whether the compound prepared in Embodiment 1 causes toxicity in skin cells and induces skin irritation, a WST-1 assay was conducted, and the results are shown in Table 1 and FIG. 2 below. In the experiment, human keratinocytes (HaCaT cells) were seeded at a density of 1×10^4 cells per well in a 96-well plate with DMEM (Dulbecco's Modified Eagle Medium) containing 10% FBS (Fetal Bovine Serum) and 1% Antibiotic-Antimycotic, and incubated for 24 hours in a constant temperature chamber at 37° C. with 5% CO2. Subsequently, the cells were treated with the compound prepared in Embodiment 1 and incubated for an additional 24 hours.

[4] = various concentrations, compared to positive control group (H2O2 treatment)

Row | SMILES | Number of fluorescent cells (Cell number) ([1]; H2O2 1 mM + substance 10 uM) | Number of fluorescent cells (Cell number) ([2]; H2O2 + substance 10 uM) | Cell Viability ([3]; 5 uM) | change in cell viability ([3]; 10 μM treatment) | Cell Viability ([3]; 10 uM) | toxicity to Keratinocyte (HaCaT) cells ([3]; concentrations of 5 and 10 μM) | Number of fluorescent cells (Cell number) ([1]; H2O2 1 mM + substance 5 uM) | increase in reactive oxygen species caused by H2O2 treatment [1, 4] | Number of fluorescent cells (Cell number) ([2]; H2O2 + substance 5 uM) | increase in reactive oxygen species caused by H2O2 treatment [2, 4]
1 | O=C(O)/C=C/c1ccc(O)c(O)c1 [Caffeic acid, reference compound] | 250 Cell number | 250 Cell number | – | – | – | – | – | – | – | –
2 | O=C(/C=C/c1ccc(O)c(O)c1)OCc1ccc(OC(=O)/C=C/c2ccc(O)c(O)c2)cc1 [Embodiment 1, 4-(((E)-3-(3,4-dihydroxyphenyl)acryloyl)oxy)benzyl (E)-3-(3,4-dihydroxyphenyl)acrylate] | 42 Cell number | 42 Cell number | 95.9% | cell viability increased | 118.9% | did not show toxicity | 60 Cell number | significantly reduced | 60 Cell number | significantly reduced
3 | O=C1O[C@H]([C@@H](O)CO)C(O)=C1O [Ascorbic acid, reference compound] | 170 Cell number | 170 Cell number | – | – | – | – | – | – | – | –

— patent publication US20250214924A1, “NOVEL COMPOUNDS AND USES THEREOF” (ACTIVON CO., LTD., priority 2022, published 2025)
